{
  "source": "paper PMC11257039",
  "about": "“VCP activator reverses nuclear proteostasis defects and enhances TDP-43 aggregate clearance in multisystem proteinopathy models” (The Journal of Clinical Investigation, 2024)",
  "format_in_all_cases": "cell-based",
  "key": {"[1]": {"system": "A232E HeLa cells expressing TDP-4FL", "test": "Immunofluorescence of TDP-4FL inclusion morphology, A232E HeLa", "description": "(§1) HeLa Cells were plated onto glass coverslips and transfected with TDP-4FL using Fugene HD for 24 hours. Cells were fixed with 4% paraformaldehyde (Electron Microscopy Sciences), permeabilized with 0.1% Triton-X (Thermo Fisher Scientific), and blocked with 2% FBS DPBS. Primary antibodies were diluted in 2% FBS DPBS. Cells were stained with 300 nM DAPI, and coverslips were mounted onto glass slides using ProLong Glass Antifade Mountant (Thermo Fisher Scientific). Confocal images were obtained using a Leica TCS SPE laser scanning confocal microscope. Primary antibodies used include mouse anti-Myc (9E10), rabbit anti-Myc (ab9106), mouse anti-VCP (NB120-11433), and mouse anti-ubiquitin (ST1200, Millipore) with Alexa Flour 488 or 568 (Invitrogen) as secondary antibodies. […]\n(§2) morphologies with MG132 treatment.\n(§3) (A) High power magnification immunofluorescence confocal images of HeLa cells expressing TDP-4FL stained for myc-TDP (green) Scale bar, 5 µm. (B) Immunofluorescence confocal images of HeLa cells treated with or without 5% 1’6-Hexanediol for 10 minutes stained for myc-TDP (green) or DAPI (blue). Scale bar, 5 µm. (C) Representative confocal microscopy immunofluorescence confocal images of HeLa cells […]\n(§4) yellow represent cells that were categorized as anisosome morphology. Nuclei outline in white represent cells that were categorized as aggregate morphology. Cells with approximately more than 50% anisosome inclusions were categorized as anisosome morphology whereas cells with approximately more than 50% aggregate-like inclusions were categorized as aggregate morphology. Binucleate cells were excluded from the total counts. Scale bar, 10 µm.\n(§5) (1 picture or pasted object on this page, not shown here)"}, "[2]": {"system": "WT HeLa cells expressing TDP-4FL", "test": "Immunofluorescence of TDP-4FL inclusion morphology, WT HeLa", "conditions": "for Proportion of Morphology: Aggregate / Proportion of Morphology: Anisosome: WT", "description": "HeLa Cells were plated onto glass coverslips and transfected with TDP-4FL using Fugene HD for 24 hours. Cells were fixed with 4% paraformaldehyde (Electron Microscopy Sciences), permeabilized with 0.1% Triton-X (Thermo Fisher Scientific), and blocked with 2% FBS DPBS. Primary antibodies were diluted in 2% FBS DPBS. Cells were stained with 300 nM DAPI, and coverslips were mounted onto glass slides using ProLong Glass Antifade Mountant (Thermo Fisher Scientific). Confocal images were obtained using a Leica TCS SPE laser scanning confocal microscope.\n(A) High power magnification immunofluorescence confocal images of HeLa cells expressing TDP-4FL stained for myc-TDP (green) Scale bar, 5 µm. […]\n(C) Representative confocal microscopy immunofluorescence confocal images of HeLa cells […]\nas §4, §5"}, "[3]": {"system": "R155H HeLa cells expressing TDP-4FL", "test": "Immunofluorescence of TDP-4FL inclusion morphology, R155H HeLa", "description": "as §1, §2, §3, §4, §5"}},
  "note": "Values joined by “and” are separate entries in the source; they are usually repeats but may differ in a detail not shown here. Equal values may be shown once. Residues, ends and D or L forms follow the SMILES beside them. *: point of attachment. Cbz = O=C(OCc1ccccc1)*",
  "data": [
    {"smiles": "CC(C)C[C@@H](C=O)NC(=O)[C@H](CC(C)C)NC(=O)[C@H](CC(C)C)NC(=O)OCc1ccccc1", "note": "[MG132] (Cbz-Leu-Leu-Leu-aldehyde)", "values": [
      {"measurement": "Proportion of Morphology: Aggregate", "setting": "[1]; MG132 3 hours", "value": "0.604 and 0.568 and 0.630 and 0.595"},
      {"measurement": "Proportion of Morphology: Anisosome", "setting": "[1]; MG132 3 hours", "value": "0.396 and 0.432 and 0.370 and 0.405"},
      {"measurement": "Proportion of Morphology: Aggregate", "setting": "[1]; MG132 6 hours", "value": "0.766 and 0.785 and 0.833"},
      {"measurement": "Proportion of Morphology: Anisosome", "setting": "[1]; MG132 6 hours", "value": "0.234 and 0.215 and 0.167"},
      {"measurement": "TDP-4FL inclusion size and morphology upon proteasome inhibition", "setting": "[2]; 4 μM MG132, 1 μM ixazomib or 1 μM epoxomicin, 3 or 6 hours", "value": "coalesced into larger, irregularly shaped aggregates"},
      {"measurement": "Proportion of Morphology: Aggregate", "setting": "[2]; MG132 3 hours", "value": "0.538 and 0.500 and 0.591 and 0.474"},
      {"measurement": "Proportion of Morphology: Anisosome", "setting": "[2]; MG132 3 hours", "value": "0.462 and 0.500 and 0.409 and 0.526"},
      {"measurement": "Proportion of Morphology: Aggregate", "setting": "[2]; MG132 6 hours", "value": "0.636 and 0.719 and 0.766"},
      {"measurement": "Proportion of Morphology: Anisosome", "setting": "[2]; MG132 6 hours", "value": "0.364 and 0.281 and 0.234"},
      {"measurement": "Proportion of Morphology: Aggregate", "setting": "[3]; MG132 3 hours", "value": "0.608 and 0.623 and 0.684 and 0.640"},
      {"measurement": "Proportion of Morphology: Anisosome", "setting": "[3]; MG132 3 hours", "value": "0.392 and 0.377 and 0.316 and 0.360"},
      {"measurement": "Proportion of Morphology: Aggregate", "setting": "[3]; MG132 6 hours", "value": "0.768 and 0.744 and 0.727"},
      {"measurement": "Proportion of Morphology: Anisosome", "setting": "[3]; MG132 6 hours", "value": "0.232 and 0.256 and 0.273"}
    ]}
  ]
}
